Patent publication US10836770B2, “Imidazopyridazine compounds useful as modulators of IL-12, IL-23 and/or INF alpha responses” (priority 2016, dated 2020)
pEC50: −log10 of the molar value.

Columns and labels:
[1] = molecular target: T1, recombinantly expressed His-tagged protein corresponding to amino acids 575-869 of human Tyk2 (Homo sapiens, UniProt P29597); experiment: Probe displacement assay (scintillation proximity, radiolabeled probe); assay type: binding
T1 construct: made in house
Protocol: The probe displacement assay is conducted as follows: In a […], test compounds along with recombinantly expressed His-tagged protein corresponding to amino acids 575-869 of human Tyk2 (sequence shown below) at 2.5 nM, 40 nM ((R)—N-(1-(3-(8-methyl-5-(methylamino)-8H-imidazo[4,5-d]thiazolo[5,4-b]pyridin-2-yl)phenyl)ethyl)-2-([^3H]methylsulfonyl)benzamide) (preparation described below) and 80 μg/mL Copper His-Tag scintillation proximity assay beads (Perkin Elmer, Catalog #RPNQ0095) in 50 mM HEPES, pH 7.5, containing 100 μg/mL bovine serum albumin and 5% DMSO were incubated for 30 minutes at room temperature. […] The IC50 value is defined as the concentration of test compound required to inhibit radiolabeled probe binding by 50%.
Protein Sequence of recombinant Hig-tagged Tyk2 (575-869):
The preparation of radiolabeled probe, (R)—N-(1-(3-(8-methyl-5-(methylamino)-8H-imidazo[4,5-d]thiazolo[5,4-b]pyridin-2-yl)phenyl)ethyl)-2-([^3H]methylsulfonyl)benzamide, was performed as described below: […]

[2] = system: IL-23-stimulated Kit225 T cells with STAT-dependent luciferase reporter; experiment: Kit225 T cell assay, IL-23 stimulated STAT-dependent luciferase reporter; assay type: cell-based, human; conditions: Homo sapiens, KIT225, read-out: IL-23 Kit225 Reporter, LE (IC50, uM)
Protocol: (§1) Kit225 T cells with a stably-integrated STAT-dependent luciferase reporter were plated in RPMI (GIBCO) containing 10% heat-inactivated FBS (GIBCO) and 100 U/mL PenStrep (GIBCO). The cells were then stimulated with either 20 ng/mL human recombinant IL-23 or 200 U/mL human recombinant IFNα (PBL InterferonSource) for 5-6 hours. Luciferase expression was measured using the STEADY-GLO® Luciferase Assay System (PROMEGA®) according to the manufacturer's instructions.

[3] = system: IFNα-stimulated Kit225 T cells with STAT-dependent luciferase reporter; experiment: Kit225 T cell assay, IFNα stimulated STAT-dependent luciferase reporter; assay type: cell-based, human; conditions: Homo sapiens, KIT225, read-out: IFNa Kit225 Reporter, LE (IC50, uM)
Protocol: as §1

T1 sequence (P29597 with tags, fused parts or gaps): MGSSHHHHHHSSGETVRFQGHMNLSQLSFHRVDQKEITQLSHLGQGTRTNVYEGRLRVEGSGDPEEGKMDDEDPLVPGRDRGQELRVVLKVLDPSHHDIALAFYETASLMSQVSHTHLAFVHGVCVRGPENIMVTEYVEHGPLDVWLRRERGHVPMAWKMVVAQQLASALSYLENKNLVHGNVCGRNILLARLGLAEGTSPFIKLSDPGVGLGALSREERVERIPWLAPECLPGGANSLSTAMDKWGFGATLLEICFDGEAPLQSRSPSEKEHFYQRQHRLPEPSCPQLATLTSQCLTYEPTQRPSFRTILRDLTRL

SMILES | pEC50 [1] | IC50 [2] [µM] | IC50 [3] [µM]
CNc1cc(Nc2c[nH]nc2C(=O)Nc2ccc(OC)nc2)nn2c(C(=O)NC3CC3)cnc12 [Example 34] | 8.61 | 0.58 | 0.81
CNc1cc(Nc2cn(C)nc2C(=O)Nc2cccc(C)c2)nn2c(C(=O)NC3CC3)cnc12 [Example 22] | 7.70 | 0.27 | 0.35
[2H]C([2H])([2H])NC(=O)c1sccc1Nc1cc(NC)c2ncc(C(=O)NC3CCC3)n2n1 [Example 50] | 7.52 | 0.45 | 1
CNc1cc(Nc2sc(C)nc2C(=O)NC(C)C)nn2c(C(=O)NC3CC3)cnc12 [Example 85] | 7.57 | 0.256 | 0.224
CNc1cc(Nc2cn(C)nc2C(=O)Nc2ccccn2)nn2c(C(=O)NC3CC3)cnc12 [Example 4] | 8.12 | 0.35 | 0.24
CNc1cc(Nc2cn(C)nc2C(=O)Nc2ccc(OC)nc2)nn2c(C(=O)NC3CC3)cnc12 [Example 11] | 7.70 | 0.52 | 0.48
CNc1cc(Nc2ccsc2C(=O)NC(C)C)nn2c(C(=O)NC3CC3)cnc12 [Example 44] | 8.00 | 0.14 | 0.07
CNC(=O)c1nn(C)cc1Nc1cc(NC)c2ncc(C(=O)N[C@@H]3C[C@@H]3F)n2n1 [Example 14] | 8.00 | 0.28 | 0.25
CCNC(=O)c1nscc1Nc1cc(NC)c2ncc(C(=O)N[C@@H]3C[C@@H]3F)n2n1 [Example 73] | 7.70 | 0.16 | 0.2
CCNC(=O)c1nscc1Nc1cc(NC)c2ncc(C(=O)NC3CCC3)n2n1 [Example 71] | 8.09 | 0.2 | 0.21
CNc1cc(Nc2cn(C)nc2C(=O)NCCCN(C)C)nn2c(C(=O)NC3CC3)cnc12 [Example 18] | 7.30 | 0.47 | 0.77
[2H]C([2H])([2H])NC(=O)c1sccc1Nc1cc(NC)c2ncc(C(=O)NCCO)n2n1 [Example 49] | 7.40 | 0.27 | 0.26
CNc1cc(Nc2cn(C)nc2C(=O)NC2CCC2)nn2c(C(=O)NC3CC3)cnc12 [Example 19] | 7.00 | 0.59 | 12.5
CNC(=O)c1n[nH]cc1Nc1cc(NC)c2ncc(C(=O)NC3CC3)n2n1 [Example 32, N-cyclopropyl-6-((3-(methylcarbamoyl)-1H-pyrazol-4-yl)amino)-8-(methylamino)imidazo[1,2-b]pyridazine-3-carboxamide] | 7.52 | 0.83 | 1.65
CNC(=O)c1cc(Nc2cc(NC)c3ncc(C(=O)NC4CC4)n3n2)n(C)n1 [Example 39, N-cyclopropyl-6-((1-methyl-3-(methylcarbamoyl)-1H-pyrazol-5-yl)amino)-8-(methylamino)imidazo[1,2-b]pyridazine-3-carboxamide] | 5.90 | 12.5 | 12.5
[2H]C([2H])([2H])NC(=O)c1nscc1Nc1cc(NC)c2ncc(C(=O)NCCOC)n2n1 [Example 69] | 8.64 | 0.05 | 0.01
CNc1cc(Nc2cn(C)nc2C(=O)NC(C)C)nn2c(C(=O)NC3CC3)cnc12 [Example 9] | 7.52 | 0.65 | 0.48
CCn1cc(Nc2cc(NC)c3ncc(C(=O)NC4CC4)n3n2)c(C(=O)NC)n1 [Example 28, N-cyclopropyl-6-((1-ethyl-3-(methylcarbamoyl)-1H-pyrazol-4-yl)amino)-8-(methylamino)imidazo[1,2-b]pyridazine-3-carboxamide] | 7.70 | 0.21 | 0.4
CNc1cc(Nc2csnc2C(=O)Nc2ccc(F)cc2)nn2c(C(=O)NC3CC3)cnc12 [Example 66] | 8.00 | 0.4 | 0.11

SMILES | pEC50 [1] | IC50 [2] [µM] | IC50 [3] [µM]
CNc1cc(Nc2cn(C)nc2C(=O)Nc2cc(C)c(C)nn2)nn2c(C(=O)NC3CC3)cnc12 [Example 7] | 7.70 | 0.32 | 0.19
CCNC(=O)c1nscc1Nc1cc(NC)c2ncc(C(=O)NC3CC3)n2n1 [Example 62] | 8.03 | 0.54 | 0.18
CNc1cc(Nc2cn(C)nc2C(=O)Nc2ccc(N(C)C)cc2)nn2c(C(=O)NC3CC3)cnc12 [Example 27] | 8.17 | 0.02 | 0.16
CCNC(=O)c1ncsc1Nc1cc(NC)c2ncc(C(=O)NC3CC3)n2n1 [Example 79] | 7.70 | 0.32 | 0.15
CNc1cc(Nc2cn(C)nc2C(=O)NCC(C)C)nn2c(C(=O)NC3CC3)cnc12 [Example 17] | 7.40 | 0.16 | 0.49
CCNC(=O)c1nn(C)cc1Nc1cc(NC)c2ncc(C(=O)NC3CC3)n2n1 [Example 20] | 7.52 | 1.12 | 0.81
CNc1cc(Nc2ccsc2C(=O)Nc2ccc(F)cc2)nn2c(C(=O)NC3CC3)cnc12 [Example 45] | 7.70 | 0.22 | 0.13
[2H]C([2H])([2H])NC(=O)c1nscc1Nc1cc(NC)c2ncc(C(=O)N[C@@H]3C[C@@H]3F)n2n1 [Example 68] | 8.56 | 0.14 | 0.05
[2H]C([2H])([2H])NC(=O)c1nscc1Nc1cc(NC)c2ncc(C(=O)NC3CCC3)n2n1 [Example 67] | 7.40 | 0.47 | 0.23
CNc1cc(Nc2cn(C)nc2C(=O)Nc2ccc3ncsc3c2)nn2c(C(=O)NC3CC3)cnc12 [Example 24] | 8.08 | 0.28 | 0.34
CNC(=O)c1nn(C)cc1Nc1cc(NC)c2ncc(C(=O)NC3CC3)n2n1 [Example 1, N-cyclopropyl-6-((1-methyl-3-(methylcarbamoyl)-1H-pyrazol-4-yl)amino)-8-(methylamino)imidazo[1,2-b]pyridazine-3-carboxamide] | 7.70 | 1.32 | 0.37
CNc1cc(Nc2cn(C)nc2C(=O)Nc2ccccc2)nn2c(C(=O)N[C@@H]3C[C@@H]3F)cnc12 [Example 15] | 8.03 | 0.2 | 0.11
[2H]C([2H])([2H])NC(=O)c1nn(C)cc1Nc1cc(NC)c2ncc(C(=O)NC3CC3)n2n1 [Example 10] | 7.52 | 0.96 | 0.4
CNc1cc(Nc2c[nH]nc2C(=O)Nc2cccnc2)nn2c(C(=O)NC3CC3)cnc12 [Example 33] | 7.52 | 1 | 5.82
CCn1cc(Nc2cc(NC)c3ncc(C(=O)NC4CC4)n3n2)c(C(=O)Nc2cncnc2)n1 [Example 29] | 7.00 | 0.24 | 1.04
CNc1cc(Nc2cnn(C)c2C(=O)Nc2ccccc2)nn2c(C(=O)NC3CC3)cnc12 [Example 38] | 7.30 | 4.46 | 12.5
[2H]C([2H])([2H])NC(=O)c1sccc1Nc1cc(NC)c2ncc(C(=O)NC3CC3)n2n1 [Example 47] | 8.29 | 0.06 | 0.05
CNc1cc(Nc2nn(C)cc2C(=O)Nc2ccccc2)nn2c(C(=O)NC3CC3)cnc12 [Example 36] | 6.89 | 3.33 | 11.9
